These results are taken from patent US7927821B2, “Methods of screening for compounds which bind G protein-coupled receptors” (Takeda Pharmaceutical Company Limited, priority 2004, dated 2011).

One assay concerns HL-60. Description: Differentiation of HL-60 cell line into neutrophil-like cells (CD11b/Mac-1, flow cytometry). The settings on record: co-presence of 1.25% DMSO and AM251 (10 μM), 4 days. It counts as cell-based, human. The source says: Human leukocyte cell line (human acute promyelocytic leukemia cell-derived) HL-60 is known to differentiate into neutrophil-like cells by treatment with DMSO (dimethyl sulfoxide) (Blood, 70, 1233-1244 (1987)). Gene expression analysis based on EXAMPLE 3 confirmed the expression of the TGR25 in the cell line. Accordingly, the action of AM251 as an agonist of the TGR25 for differentiation of the cells was examined.
After HL-60 cells in the growth phase were suspended in 10% fetal calf serum-containing RPMI 1640 medium, the cells were plated on a 12-well tissue culture plate (Becton Dickinson Japan) in 5×10^4 cells/well. […] Degree of cell differentiation was analyzed using a fluorescence-labeled antibody (PE-anti-human CD11b/Mac-1, Becton Dickinson Japan) on a flow cytometry (BD FACSVantage™, Becton Dickinson Japan), in terms of the expression level of a differentiation marker or cell surface antigen CD11b/Mac-1 as an indicator.
(In flow cytometry, cells or beads pass a laser one at a time.)

For assay [1], the system named is pAKKO-111H-transfected cells (control). Put plainly: SRE-luciferase reporter assay in pAKKO-111H-transfected HeLa cells for control (no receptor). Particulars: 2 μM. (Reporter assays use an easily measured gene product as a stand-in for the process of interest.)
Another assay addresses TGR25 (Homo sapiens, UniProt Q86Y34). Put plainly: SRE-luciferase reporter assay in HeLa cells transiently expressing TGR25. The assay is classed as cell-based. Particulars: for luciferase activity in the TGR25-expressed cells (in words): 20 μM.

Sequence of TGR25 (Q86Y34 21-549): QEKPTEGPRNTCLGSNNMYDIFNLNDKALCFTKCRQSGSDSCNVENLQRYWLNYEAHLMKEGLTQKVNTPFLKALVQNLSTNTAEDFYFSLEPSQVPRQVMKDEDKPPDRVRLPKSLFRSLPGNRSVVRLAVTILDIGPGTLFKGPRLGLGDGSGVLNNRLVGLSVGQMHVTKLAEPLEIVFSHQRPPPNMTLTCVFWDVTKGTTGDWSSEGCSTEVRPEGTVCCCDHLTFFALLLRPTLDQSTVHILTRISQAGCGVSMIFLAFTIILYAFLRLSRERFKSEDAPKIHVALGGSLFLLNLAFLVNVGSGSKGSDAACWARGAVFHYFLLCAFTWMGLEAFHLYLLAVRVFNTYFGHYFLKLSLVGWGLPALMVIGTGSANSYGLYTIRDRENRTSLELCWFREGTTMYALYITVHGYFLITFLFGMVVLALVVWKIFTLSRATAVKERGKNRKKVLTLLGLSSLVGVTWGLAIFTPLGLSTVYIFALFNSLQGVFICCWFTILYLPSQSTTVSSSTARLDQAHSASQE

As for `Cc1c(C(=O)NN2CCCCC2)nn(-c2ccc(Cl)cc2Cl)c1-c1ccc(I)cc1` [AM251, 1-(2,4-dichlorophenyl)-5-(4-iodophenyl)-4-methyl-N-piperidin-1-yl-1H-pyrazole-3-carboxamide], the “differentiation of HL-60 into neutrophil-like cells” value with HL-60 is listed as “acts promotively”. In addition, in the assay on HL-60 (versus DMSO alone), the “expression level of CD11b/Mac-1 (differentiation marker)” value is given as “further increased”. Also, the “luciferase activity in the pAKKO-111H-transfected cells for control (in words)” value in assay [1] is on record as “any significant increase in the activity was not detected”. The “luciferase activity in the TGR25 expression cells (in words)” value at TGR25 (2 μM) is given as “increased luciferase activity was detected”. Besides, the “Increased luciferase activity (cps) in the TGR25 expression cells by AM251: TGR25” value on TGR25 (AM251 2 μM, 4 hours, HeLa cells, 0 μM gave 7527) was 17897 cps.

For `Cc1c(C(=O)NN2CCOCC2)nn(-c2ccc(Cl)cc2Cl)c1-c1ccc(I)cc1` [AM281, 1-(2,4-dichlorophenyl)-5-(4-iodophenyl)-4-methyl-N-morpholin-4-yl-1H-pyrazole-3-carboxamide], the “luciferase activity in the TGR25-expressed cells (in words)” value on TGR25 is reported as “the luciferase activity increased”. Moreover, the “Increase of Luciferase Activity in TGR25-Expressed Cells by AM281 (cps): TGR25” value on TGR25 (AM281 20 μM, 4 hours, HeLa cells, 0 μM gave 6113) is on record as 9279 cps.

For `CCCCC(=O)NCCc1c(Cc2ccccc2)[nH]c2ccccc12` [DH97, N-[2-(2-benzyl-1H-indol-3-yl)ethyl]pentanamide], on TGR25, the “luciferase activity in the TGR25-expressed cells (in words)” value is recorded as “the luciferase activity increased”. In addition, the “Increase of Luciferase Activity in TGR25-Expressed Cells by DH97 (cps): TGR25” value at TGR25 (DH97 20 μM, 4 hours, HeLa cells, 0 μM gave 2642) was 5674 cps.
